Measured values taken from ChEMBL document CHEMBL1129765, “Azonia derivatives of the -carboline system. A new class of DNA intercalators” (Bioorg Med Chem Lett, 1996).

Tested on: HT-29
Test: Compound was tested in vitro to inhibit 50% colon carcinoma HT-29 cell growth after 72 h
Assay type: functional, cell-based
Settings: Homo sapiens, HT-29, 72 h

EC50: 2500 nM
SMILES: COc1cccc2c1C(=O)c1c(O)c3c(c(O)c1C2=O)C[C@@](O)(C(=O)CO)C[C@@H]3O[C@H]1C[C@H](N)[C@H](O)[C@H](C)O1 [DOXORUBICIN]
